Experimental findings from publication PMC5218480 (PLoS ONE, 2017) are described below.

The assay deals with MV-4-11 cells. As to the kind of experiment: Gene expression microarray analysis (Affymetrix PrimeView) and GSEA. Particulars: MV-4-11 cells, 48 hours. The assay is classed as cell-based, human. Set-up: RFU PODN (11730768_x_at) / Fold change /veh PODN (11730768_x_at) / RFU LINC00158 (11744669_a_at) / Fold change /veh LINC00158 (11744669_a_at) / RFU DUSP10 (11751237_a_at) / Fold change /veh DUSP10 (11751237_a_at) / RFU ID3 (11757404_x_at) / Fold change /veh ID3 (11757404_x_at) / RFU PLEKHG5 (11737974_s_at) / Fold change /veh PLEKHG5 (11737974_s_at) / RFU LRRC4B (11730491_at) / Fold change /veh LRRC4B (11730491_at) / RFU GIMAP4 (11747438_a_at) / Fold change /veh GIMAP4 (11747438_a_at) / RFU KRT8 (11758183_x_at) / Fold change /veh KRT8 (11758183_x_at) / RFU CNN1 (11734310_a_at) / Fold change /veh CNN1 (11734310_a_at) / RFU VPS37D (11726825_at) / Fold change /veh VPS37D (11726825_at) / RFU C10orf10 (11716522_x_at) / Fold change /veh C10orf10 (11716522_x_at) / RFU KIR2DL2 /// KIR2DL4 /// KIR2DL5A /// KIR2DL5B /// KIR2DS1 /// KIR2DS2 /// KIR2DS3 /// KIR2DS4 /// KIR3DL3 /// KIR3DL3 /// KIR3DS1 (11738374_at) / Fold change /veh KIR2DL2 /// KIR2DL4 /// KIR2DL5A /// KIR2DL5B /// KIR2DS1 /// KIR2DS2 /// KIR2DS3 /// KIR2DS4 /// KIR3DL3 /// KIR3DL3 /// KIR3DS1 (11738374_at) / RFU C1QL1 (11718748_at) / Fold change /veh C1QL1 (11718748_at) / RFU TMPRSS4 (11747572_a_at) / Fold change /veh TMPRSS4 (11747572_a_at) / RFU HAMP (11756126_x_at) / Fold change /veh HAMP (11756126_x_at) / RFU RNFT2 (11725882_a_at) / Fold change /veh RNFT2 (11725882_a_at) / RFU NR4A2 (11747474_a_at) / Fold change /veh NR4A2 (11747474_a_at) / RFU ABCC12 (11746883_a_at) / Fold change /veh ABCC12 (11746883_a_at) / RFU TMEM136 (11760407_x_at) / Fold change /veh TMEM136 (11760407_x_at) / RFU CLDN22 /// WWC2 (11732394_at) / Fold change /veh CLDN22 /// WWC2 (11732394_at) / RFU HLA-DPB1 (11760878_x_at) / Fold change /veh HLA-DPB1 (11760878_x_at) / RFU SPINT1 (11716480_a_at) / Fold change /veh SPINT1 (11716480_a_at) / RFU GAP43 (11754022_s_at) / Fold change /veh GAP43 (11754022_s_at) / RFU A4GNT (11735810_at) / Fold change /veh A4GNT (11735810_at) / RFU PRB3 (11715151_x_at) / Fold change /veh PRB3 (11715151_x_at) / RFU TUBB4B (11761932_at) / Fold change /veh TUBB4B (11761932_at) / RFU CAPN14 (11732068_a_at) / Fold change /veh CAPN14 (11732068_a_at) / RFU TMCC2 (11721928_a_at) / Fold change /veh TMCC2 (11721928_a_at) / RFU IRGQ (11745062_a_at) / Fold change /veh IRGQ (11745062_a_at) / RFU FAM174B (11720279_a_at) / Fold change /veh FAM174B (11720279_a_at) / RFU TMPRSS4 (11748680_a_at) / Fold change /veh TMPRSS4 (11748680_a_at) / RFU FAM212B (11763350_a_at) / Fold change /veh FAM212B (11763350_a_at) / RFU PLEKHG5 (11743358_a_at) / Fold change /veh PLEKHG5 (11743358_a_at) / RFU ZSCAN30 (11745921_a_at) / Fold change /veh ZSCAN30 (11745921_a_at) / RFU CMKLR1 (11741424_a_at) / Fold change /veh CMKLR1 (11741424_a_at) / RFU LOC101060620 /// MAPK8IP1 (11723275_at) / Fold change /veh LOC101060620 /// MAPK8IP1 (11723275_at) / RFU SPTSSB (11747773_x_at) / Fold change /veh SPTSSB (11747773_x_at) / RFU PRSS12 (11739890_at) / Fold change /veh PRSS12 (11739890_at) / RFU BIN1 (11741810_x_at) / Fold change /veh BIN1 (11741810_x_at) / RFU WNT11 (11732464_a_at) / Fold change /veh WNT11 (11732464_a_at) / RFU C10orf10 (11716521_a_at) / Fold change /veh C10orf10 (11716521_a_at) / RFU C5orf56 (11738089_at) / Fold change /veh C5orf56 (11738089_at) / RFU CYB561 (11721691_x_at) / Fold change /veh CYB561 (11721691_x_at) / RFU ANKRD19P (11752326_a_at) / Fold change /veh ANKRD19P (11752326_a_at) / RFU OR2T12 /// OR2T33 /// OR2T8 (11738714_s_at) / Fold change /veh OR2T12 /// OR2T33 /// OR2T8 (11738714_s_at) / RFU VCAN (11748164_a_at) / Fold change /veh VCAN (11748164_a_at) / RFU JSRP1 (11732532_at) / Fold change /veh JSRP1 (11732532_at) / RFU KRTAP10-11 (11738290_x_at) / Fold change /veh KRTAP10-11 (11738290_x_at) / RFU MYO3A (11730013_a_at) / Fold change /veh MYO3A (11730013_a_at) / RFU EBF3 (11725865_a_at) / Fold change /veh EBF3 (11725865_a_at) / RFU CAMK2N1 (11719241_x_at) / Fold change /veh CAMK2N1 (11719241_x_at) / RFU C5orf56 (11738088_a_at) / Fold change /veh C5orf56 (11738088_a_at) / RFU OLFML3 (11715873_a_at) / Fold change /veh OLFML3 (11715873_a_at) / RFU LOC100653217 /// NTM (11731650_a_at) / Fold change /veh LOC100653217 /// NTM (11731650_a_at) / RFU MAPK11 (11762145_a_at) / Fold change /veh MAPK11 (11762145_a_at) / RFU FIZ1 (11724087_x_at) / Fold change /veh FIZ1 (11724087_x_at) / RFU OASL (11726364_x_at) / Fold change /veh OASL (11726364_x_at) / RFU SOX15 (11748057_x_at) / Fold change /veh SOX15 (11748057_x_at) / RFU CD79A (11719716_a_at) / Fold change /veh CD79A (11719716_a_at) / RFU HIST1H1D (11736915_at) / Fold change /veh HIST1H1D (11736915_at) / RFU CASKIN2 (11723855_a_at) / Fold change /veh CASKIN2 (11723855_a_at) / RFU LOC730098 (11760151_x_at) / Fold change /veh LOC730098 (11760151_x_at) / RFU OR4N2 (11742367_at) / Fold change /veh OR4N2 (11742367_at) / RFU PRRT2 (11749266_a_at) / Fold change /veh PRRT2 (11749266_a_at) / RFU SNX32 (11753110_a_at) / Fold change /veh SNX32 (11753110_a_at) / RFU CDHR5 (11726645_a_at) / Fold change /veh CDHR5 (11726645_a_at) / RFU RCAN1 (11760418_a_at) / Fold change /veh RCAN1 (11760418_a_at) / RFU FAM167A (11723789_a_at) / Fold change /veh FAM167A (11723789_a_at) / RFU FAM26E (11764081_at) / Fold change /veh FAM26E (11764081_at) / RFU ISYNA1 (11749810_s_at) / Fold change /veh ISYNA1 (11749810_s_at) / RFU ACY1 (11761880_at) / Fold change /veh ACY1 (11761880_at) / RFU 11764098_at / Fold change /veh 11764098_at / RFU SAMD14 (11745864_x_at) / Fold change /veh SAMD14 (11745864_x_at) / RFU NPB (11741838_a_at) / Fold change /veh NPB (11741838_a_at) / RFU TMPRSS6 (11731388_a_at) / Fold change /veh TMPRSS6 (11731388_a_at) / RFU KRTAP10-2 (11738614_at) / Fold change /veh KRTAP10-2 (11738614_at) / RFU ARHGAP8 /// PRR5-ARHGAP8 (11727945_x_at) / Fold change /veh ARHGAP8 /// PRR5-ARHGAP8 (11727945_x_at) / RFU KRTAP5-7 /// NADSYN1 (11734609_at) / Fold change /veh KRTAP5-7 /// NADSYN1 (11734609_at) / RFU RASL12 (11751679_a_at) / Fold change /veh RASL12 (11751679_a_at) / RFU CDKN2B (11736163_a_at) / Fold change /veh CDKN2B (11736163_a_at) / RFU PRF1 (11729649_at) / Fold change /veh PRF1 (11729649_at) / RFU, ZNF638 /// ZNF638-IT1 / Fold change vs veh, ZNF638 /// ZNF638-IT1 / RFU, PANK3 / Fold change vs veh, PANK3 / RFU, SH3YL1 / Fold change vs veh, SH3YL1 / RFU, ZEB2 / Fold change vs veh, ZEB2 / RFU, NRIP1 / Fold change vs veh, NRIP1 / RFU, PTTG1IP / Fold change vs veh, PTTG1IP / RFU, CAPN2 / Fold change vs veh, CAPN2 / RFU, MED14 / Fold change vs veh, MED14 / RFU, SNORA58 / Fold change vs veh, SNORA58 / RFU, C1orf63 / Fold change vs veh, C1orf63 / RFU, LRRFIP1 / Fold change vs veh, LRRFIP1 / RFU, NDUFAF7 / Fold change vs veh, NDUFAF7 / RFU, SLC12A2 / Fold change vs veh, SLC12A2 / RFU, IBTK / Fold change vs veh, IBTK / RFU, ESF1 / Fold change vs veh, ESF1 / Fold change vs veh, TMEM50B / RFU, TAOK1 / Fold change vs veh, TAOK1 / RFU, ACBD3 / Fold change vs veh, ACBD3 / RFU, TMA16 / Fold change vs veh, TMA16 / RFU, RWDD3 / Fold change vs veh, RWDD3 / RFU, BCAT1 / Fold change vs veh, BCAT1 / RFU, EDEM3 / Fold change vs veh, EDEM3 / RFU, TMEM33 / Fold change vs veh, TMEM33 / RFU, WDR75 / Fold change vs veh, WDR75 / RFU, AHCTF1 / Fold change vs veh, AHCTF1 / RFU, TFRC / Fold change vs veh, TFRC / RFU, ZDHHC17 / Fold change vs veh, ZDHHC17 / RFU, NOM1 / Fold change vs veh, NOM1 / RFU, ARL8B / Fold change vs veh, ARL8B / RFU, ZBTB11 / Fold change vs veh, ZBTB11 / RFU, TAMM41 / Fold change vs veh, TAMM41 / RFU, KIAA1704 /// LOC100996395 / Fold change vs veh, KIAA1704 /// LOC100996395 / RFU, ING1 / Fold change vs veh, ING1 / RFU, TRMT61B / Fold change vs veh, TRMT61B / RFU, FUBP3 / Fold change vs veh, FUBP3 / RFU, TP53 / Fold change vs veh, TP53 / RFU, TNKS2 / Fold change vs veh, TNKS2 / RFU, ZFP14 / Fold change vs veh, ZFP14 / RFU, ACTR2 / Fold change vs veh, ACTR2 / RFU, PPP3R1 / Fold change vs veh, PPP3R1 / RFU, PIK3R1 / Fold change vs veh, PIK3R1 / RFU, HNRNPA1 / Fold change vs veh, HNRNPA1 / RFU, RNF170 / Fold change vs veh, RNF170 / RFU, ZNF28 / Fold change vs veh, ZNF28 / RFU, RNGTT / Fold change vs veh, RNGTT / RFU, OGT / Fold change vs veh, OGT / RFU, BRD1 / Fold change vs veh, BRD1 / RFU, MARS / Fold change vs veh, MARS / RFU, ZNF655 / Fold change vs veh, ZNF655 / RFU, FAHD1 / Fold change vs veh, FAHD1 / RFU, BDP1 / Fold change vs veh, BDP1 / RFU, LRRCC1 / Fold change vs veh, LRRCC1 / RFU, ARID1A / Fold change vs veh, ARID1A / RFU, ZNF146 / Fold change vs veh, ZNF146 / RFU, ZNF330 / Fold change vs veh, ZNF330 / RFU, GPN3 / Fold change vs veh, GPN3 / RFU, C9orf123 / Fold change vs veh, C9orf123 / RFU, N4BP2L2 / Fold change vs veh, N4BP2L2 / RFU, ARFIP1 / Fold change vs veh, ARFIP1 / RFU, FAM179B / Fold change vs veh, FAM179B / RFU, BCL10 / Fold change vs veh, BCL10 / RFU, UHRF1BP1L / Fold change vs veh, UHRF1BP1L / RFU, BET1 / Fold change vs veh, BET1 / RFU, CNOT2 / Fold change vs veh, CNOT2 / RFU, ZNF268 / Fold change vs veh, ZNF268 / Fold change vs veh, ZNF507 / RFU, DGCR2 / Fold change vs veh, DGCR2 / RFU, WDSUB1 / Fold change vs veh, WDSUB1 / Fold change vs veh, HSP90B1 /// MIR3652 / RFU, ADSS / Fold change vs veh, ADSS / RFU, GK / Fold change vs veh, GK / RFU, ZNF148 / Fold change vs veh, ZNF148 / RFU, TAF9 / Fold change vs veh, TAF9 / RFU, SLC1A5 / Fold change vs veh, SLC1A5 / RFU, SLMO2 / Fold change vs veh, SLMO2 / RFU, ABCC4 / Fold change vs veh, ABCC4 / RFU, LOC101060439 /// RAP1B / Fold change vs veh, LOC101060439 /// RAP1B / RFU, RFX7 / Fold change vs veh, RFX7 / RFU, GTPBP10 / Fold change vs veh, GTPBP10 / RFU, CNEP1R1 / Fold change vs veh, CNEP1R1 / RFU, BIVM-ERCC5 /// ERCC5 / Fold change vs veh, BIVM-ERCC5 /// ERCC5 / RFU, ILF3 / Fold change vs veh, ILF3 / RFU 11762660_at / Fold change /veh 11762660_at / RFU VCAN (11757783_s_at) / Fold change /veh VCAN (11757783_s_at) / RFU DDX43 (11728927_at) / Fold change /veh DDX43 (11728927_at) / RFU KRT8 (11758188_x_at) / Fold change /veh KRT8 (11758188_x_at) / RFU NKD1 (11759106_at) / Fold change /veh NKD1 (11759106_at) / RFU SRD5A1 (11742802_a_at) / Fold change /veh SRD5A1 (11742802_a_at) / RFU TPSAB1 /// TPSB2 (11721975_s_at) / Fold change /veh TPSAB1 /// TPSB2 (11721975_s_at) / RFU GSTM3 (11746129_a_at) / Fold change /veh GSTM3 (11746129_a_at) / RFU IL23R (11737362_x_at) / Fold change /veh IL23R (11737362_x_at) / RFU TMEM51 (11727254_a_at) / Fold change /veh TMEM51 (11727254_a_at) / RFU PIWIL2 (11732686_x_at) / Fold change /veh PIWIL2 (11732686_x_at) / RFU ORM1 (11744905_x_at) / Fold change /veh ORM1 (11744905_x_at) / RFU CCDC152 (11743942_at) / Fold change /veh CCDC152 (11743942_at) / RFU ECM1 (11717891_a_at) / Fold change /veh ECM1 (11717891_a_at) / RFU IL23R (11748794_a_at) / Fold change /veh IL23R (11748794_a_at) / RFU TNFAIP8L3 (11732012_x_at) / Fold change /veh TNFAIP8L3 (11732012_x_at) / RFU MBOAT4 (11741988_at) / Fold change /veh MBOAT4 (11741988_at) / RFU 11764193_at / Fold change /veh 11764193_at / RFU TMEM53 (11763286_at) / Fold change /veh TMEM53 (11763286_at) / RFU MAGEB2 (11727129_at) / Fold change /veh MAGEB2 (11727129_at) / RFU TMEM200A (11744735_a_at) / Fold change /veh TMEM200A (11744735_a_at) / RFU CCDC152 (11751479_a_at) / Fold change /veh CCDC152 (11751479_a_at) / RFU FAM211A (11726209_a_at) / Fold change /veh FAM211A (11726209_a_at) / RFU RGS16 (11746705_a_at) / Fold change /veh RGS16 (11746705_a_at) / RFU VCAN (11755009_s_at) / Fold change /veh VCAN (11755009_s_at) / RFU RHOB (11743442_s_at) / Fold change /veh RHOB (11743442_s_at) / RFU RGS16 (11720943_a_at) / Fold change /veh RGS16 (11720943_a_at) / RFU RGS16 (11720944_at) / Fold change /veh RGS16 (11720944_at) / RFU, VPS4B / Fold change vs veh, VPS4B / RFU, CREB1 / Fold change vs veh, CREB1 / RFU, DNAJC13 / Fold change vs veh, DNAJC13 / RFU, GNAQ / Fold change vs veh, GNAQ / RFU, CDK5R1 / Fold change vs veh, CDK5R1 / RFU, ZRANB3 / Fold change vs veh, ZRANB3 / RFU, CUL4A / Fold change vs veh, CUL4A / RFU, CCNY / Fold change vs veh, CCNY / RFU, UFL1 / Fold change vs veh, UFL1 / RFU, COG3 / Fold change vs veh, COG3 / RFU, DIAPH2 / Fold change vs veh, DIAPH2 / RFU, SKA2 / Fold change vs veh, SKA2 / RFU, AFF3 / Fold change vs veh, AFF3 / RFU, LMF1 / Fold change vs veh, LMF1 / RFU, IPO11 / Fold change vs veh, IPO11 / RFU, DFFB / Fold change vs veh, DFFB / RFU, FOXP1 / Fold change vs veh, FOXP1 / RFU, CARD8 / Fold change vs veh, CARD8 / RFU, STRN3 / Fold change vs veh, STRN3 / RFU, ADK / Fold change vs veh, ADK / RFU, RASSF2 / Fold change vs veh, RASSF2 / RFU, WIPF1 / Fold change vs veh, WIPF1 / RFU, LARP1B / Fold change vs veh, LARP1B / RFU, RASA1 / Fold change vs veh, RASA1 / RFU, RB1 / Fold change vs veh, RB1 / RFU, PPFIA1 / Fold change vs veh, PPFIA1 / RFU, MAT2A / Fold change vs veh, MAT2A / RFU, CCT5 / Fold change vs veh, CCT5 / RFU, WDR92 / Fold change vs veh, WDR92 / RFU, CUX1 / Fold change vs veh, CUX1 / RFU, TTC7A / Fold change vs veh, TTC7A / RFU, TMEM135 / Fold change vs veh, TMEM135 / RFU, DEPTOR / Fold change vs veh, DEPTOR / RFU, CPM / Fold change vs veh, CPM / RFU, DNAJB6 / Fold change vs veh, DNAJB6 / RFU, CACNA2D3 / Fold change vs veh, CACNA2D3 / RFU, DTX4 / Fold change vs veh, DTX4 / RFU, TFCP2 / Fold change vs veh, TFCP2 / RFU, GMCL1 /// GMCL1P1 / Fold change vs veh, GMCL1 /// GMCL1P1 / RFU, AEBP2 / Fold change vs veh, AEBP2 / RFU, SNHG1 /// SNORD22 /// SNORD25 /// SNORD26 /// SNORD27 /// SNORD28 /// SNORD29 /// SNORD31 / Fold change vs veh, SNHG1 /// SNORD22 /// SNORD25 /// SNORD26 /// SNORD27 /// SNORD28 /// SNORD29 /// SNORD31 / Fold change (Aza/veh), C12orf56 (ProbeSet 11735607_a_at) / Fold change (ACY-1035/veh), C12orf56 (ProbeSet 11735607_a_at) / Fold change (Aza/veh), FGFR1OP (ProbeSet 11751329_s_at) / Fold change (ACY-1035/veh), FGFR1OP (ProbeSet 11751329_s_at) / Fold change (Aza/veh), VPS36 (ProbeSet 11739960_a_at) / Fold change (ACY-1035/veh), VPS36 (ProbeSet 11739960_a_at) / RFU SYPL1 (11715823_x_at) / Fold change /veh SYPL1 (11715823_x_at) / RFU IGFBP7 (11715501_s_at) / Fold change /veh IGFBP7 (11715501_s_at) / RFU REEP3 (11722064_at) / Fold change /veh REEP3 (11722064_at) / RFU IGLL1 (11728026_x_at) / Fold change /veh IGLL1 (11728026_x_at): dose or concentration left out as unconfirmed.

As for `Nc1ccc(-c2cccs2)cc1NC(=O)c1ccc2c(c1)cc(C1CC1)n2CCN1CCOCC1` [ACY-1035], the “Fold change /veh ID3 (11757404_x_at)” value is given as 1.00.
